Laboratory results from patent publication US6348461B1, “6,7-asymmetrically disubstituted quinoxalinecarboxylic acid derivatives, addition salts thereof, and processes for the preparation of both” (Kyorin Pharmaceutical Co., Ltd., priority 1997, dated 2002).
Where a name gives a salt, the structure may show the parent alone.

melting point	SMILES
213 to 215 °C (dec.)	O=C(O)c1nc2cc(C(F)(F)F)c([N+](=O)[O-])cc2[nH]c1=O [Example 163, 3,4-Dihydro-6-nitro-3-oxo-7-trifluoromethylquinoxaline-2-carboxylic Acid]
209 to 211 °C (dec.)	O=C(O)c1nc2cc(CN3CCOCC3)c([N+](=O)[O-])cc2[nH]c1=O (as salt: hydrochloride) [Example 160, 3,4-Dihydro-7-(morpholine-1-yl)methyl-6-nitro-3-oxoquinoxaline-2-carboxylic Acid Hydrochloride]
196 to 198 °C (dec.)	O=C(NCc1ccn(-c2cc3nc(C(=O)O)c(=O)[nH]c3cc2C(F)(F)F)c1)Nc1ccc(Br)cc1 [Example 185, 7-(3-(((4-Bromophenyl)aminocarbonylamino)methyl)pyrrole-1-yl)-3,4-dihydro-3-oxo-6-trifluoromethylquinoxaline-2-carboxylic Acid]
231 to 233 °C (dec.)	O=C(Nc1ccc(C(=O)O)cc1)OCc1cn(-c2cc3nc(C(=O)O)c(=O)[nH]c3cc2[N+](=O)[O-])ccc1=O [Example 307, 7-(3-((N-(4-Carboxyphenyl)carbamoyloxy)methyl)-4-pyridone-1-yl)-3,4-dihydro-6-nitro-3-oxoquinoxaline-2-carboxylic Acid]
193 to 195 °C (dec.)	O=C(Nc1ccccc1)OCc1cn(-c2cc3nc(C(=O)O)c(=O)[nH]c3cc2C(F)(F)F)cn1 [Example 235, 3,4-Dihydro-3-oxo-7-((4-(N-phenylcarbamoyloxy)methyl)imidazole-1-yl)-6-trifluoromethylquinoxaline-2-carboxylic Acid]
201 to 203 °C (dec.)	CCOC(=O)c1ccc(NC(=O)OCc2cn(-c3cc4nc(C(=O)O)c(=O)[nH]c4cc3[N+](=O)[O-])ccc2=O)cc1 [Example 306, 7-(3-((N-(4-Ethoxycarbonylphenyl)carbamoyloxy)methyl)-4-pyridone-1-yl)-3,4-dihydro-6-nitro-3-oxoquinoxaline-2-carboxylic Acid]
255 °C (dec.)	O=C(NCc1cn(-c2cc3nc(C(=O)O)c(=O)[nH]c3cc2C(F)(F)F)cn1)Nc1ccc(C(=O)O)cc1 (as salt: salt) [Example 207, 7-(4-(((4-Carboxyphenyl)aminocarbonylamino)methyl)imidazole-1-yl)-3,4-dihydro-3-oxo-6-trifluoromethylquinoxaline-2-carboxylic Acid]
232 to 234 °C (dec.)	O=C(O)c1nc2cc(-n3ccnc3)c(C(F)(F)F)cc2[nH]c1=O [Example 168, 3,4-Dihydro-7-imidazolyl-3-oxo-6-trifluoromethylquinoxaline-2-carboxylic Acid]
> 300 °C	O=C(O)Cc1cn(-c2cc3nc(C(=O)O)c(=O)[nH]c3cc2[N+](=O)[O-])cn1 [Example 303, 7-(4-(Carboxymethyl)imidazolyl)-3,4-dihydro-6-nitro-3-oxoquinoxaline-2-carboxylic Acid]
300 °C	Nc1cc2nc(C(=O)O)c(=O)[nH]c2cc1[N+](=O)[O-] [Example 157, 7-Amino-3,4-dihydro-6-nitro-3-oxoquinoxaline-2-carboxylic Acid]
300 °C	O=C(O)c1nc2cc(-n3ccc(=O)cc3)c(C(F)(F)F)cc2[nH]c1=O [Example 169, 3,4-Dihydro-3-oxo-7-(4-pyridone-1-yl)-6-trifluoro-methylquinoxaline-2-carboxylic Acid]
298 to 299 °C	O=C(c1nc2cc(N3CCOCC3)c([N+](=O)[O-])cc2[nH]c1=O)N1CCOCC1 [Example 138, 3,4-Dihydro-7-morpholino-6-nitro-3-oxoquinoxaline-2-carboxylic Morpholineamide]
300 °C	O=C(NCc1ccn(-c2cc3nc(C(=O)O)c(=O)[nH]c3cc2C(F)(F)F)c1)Nc1cccc(C(=O)O)c1 [Example 187, 7-(3-(((3-Carboxyphenyl)aminocarbonylamino)methyl)pyrrole-1-yl)-3,4-dihydro-3-oxo-6-trifluoromethylquinoxaline-2-carboxylic Acid]
218 to 220 °C (dec.)	Nc1cc2nc(C(=O)O)c(=O)[nH]c2cc1C(F)(F)F [Example 164, 7-Amino-3,4-dihydro-3-oxo-6-trifluoromethylquinoxaline-2-carboxylic Acid]
173 to 175 °C	Cn1c(=O)c(C(=O)O)nc2cc(F)c([N+](=O)[O-])cc21 [Example 162, 3,4-Dihydro-7-fluoro-4-methyl-6-nitro-3-oxoquinoxaline-2-carboxylic Acid]
> 300 °C	Nc1cn(-c2cc3nc(C(=O)O)c(=O)[nH]c3cc2[N+](=O)[O-])ccc1=O [Example 142, 7-(3-Amino-4-pyridone-1-yl)-3,4-dihydro-6-nitro-3-oxoquinoxaline-2-carboxylic Acid]

Second part, the compound before the results:

SMILES	melting point
O=C(NCc1cn(-c2cc3nc(C(=O)O)c(=O)[nH]c3cc2[N+](=O)[O-])cn1)Nc1ccccc1F [Example 118, 3,4-Dihydro-7-(4-(((2-fluorophenyl)aminocarbonylamino)methyl)imidazolyl)-6-nitro-3-oxoquinoxaline-2-carboxylic Acid]	300 °C
COc1ccc(NC(=O)OCc2cn(-c3cc4nc(C(=O)[O-])c(=O)[nH]c4cc3[N+](=O)[O-])cn2)cc1.[Na+] [Example 108]	265 to 267 °C (dec.)
O=C(Nc1cccc(C(=O)O)c1)OCc1cn(-c2cc3nc(C(=O)O)c(=O)[nH]c3cc2[N+](=O)[O-])ccc1=O [Example 125, 7-(3-((N-(3-Carboxyphenyl)carbamoyloxy)methyl)-4-pyridone-1-yl)-3,4-dihydro-6-nitro-3-oxoquinoxaline-2-carboxylic Acid]	250 to 252 °C (dec.)
O=C(O)c1nc2cc(Oc3cccc([N+](=O)[O-])c3)c([N+](=O)[O-])cc2[nH]c1=O	198 to 200 °C (dec.)
O=C(Nc1ccc(Br)cc1)OCc1cn(-c2cc3nc(C(=O)O)c(=O)[nH]c3cc2[N+](=O)[O-])cn1 [Example 86, 7-(4-((N-(4-Bromophenyl)carbamoyloxy)methyl)imidazolyl)-3,4-dihydro-6-nitro-3-oxoquinoxaline-2-carboxylic Acid]	270 to 272 °C (dec.)
O=C(Nc1ccc(Br)cc1)Nc1cn(-c2cc3nc(C(=O)O)c(=O)[nH]c3cc2[N+](=O)[O-])ccc1=O [Example 128, 7-(3-((4-Bromophenyl)aminocarbonylamino)-4-pyridone-1-yl)-3,4-dihydro-6-nitro-3-oxoquinoxaline-2-carboxylic Acid]	252 to 254 °C (dec.)
O=C(NCc1ccn(-c2cc3nc(C(=O)O)c(=O)[nH]c3cc2C(F)(F)F)c1)Nc1ccc(C(=O)O)cc1 [Example 79, 7-(3-(((4-Carboxyphenyl)aminocarbonylamino)-methyl)pyrrole-1-yl)-3,4-dihydro-3-oxo-6-trifluoromethylquinoxaline-2-carboxylic Acid]	234 to 236 °C (dec.)
NC(=O)c1nc2cc(F)c([N+](=O)[O-])cc2[nH]c1=O [Example 69, 3,4-Dihydro-7-fluoro-6-nitro-3-oxoquinoxaline-2-carboxamide]	> 300 °C
O=C(O)c1nc2cc(N3CCC(O)CC3)c([N+](=O)[O-])cc2[nH]c1=O [Example 61, 3,4-Dihydro-7-(4-hydroxypiperidine-1-yl)-6-nitro-3-oxoqinoxaline-2-carboxylic Acid]	253 to 255 °C
O=C(Nc1cccc(C(=O)O)c1)OCc1cn(-c2cc3nc(C(=O)O)c(=O)[nH]c3cc2[N+](=O)[O-])cn1 [Example 116, 7-(4-((N-(3-Carboxyphenyl)carbamoyloxy)methyl)imidazolyl)-3,4-dihydro-6-nitro-3-oxoquinoxaline-2-carboxylic Acid]	272 to 274 °C (dec.)
O=C(O)c1nc2cc(N3CCN(Cc4ccccc4)CC3)c([N+](=O)[O-])cc2[nH]c1=O [Example 60, 7-(4-Benzylpiperazine-1-yl)-3,4-dihydro-6-nitro-3-oxoquinoxaline-2-carboxylic Acid]	278 to 280 °C
NC(=O)c1nc2cc(-n3ccc(=O)cc3)c([N+](=O)[O-])cc2[nH]c1=O [Example 70, 3,4-Dihydro-6-nitro-3-oxo-7-(4-pyridone-1-yl)quinoxaline-2-carboxamide]	> 300 °C
COc1ccccc1N1CCN(c2cc3nc(C(=O)O)c(=O)[nH]c3cc2[N+](=O)[O-])CC1 [Example 59, 3,4-Dihydro-7-(4-(2-methoxyphenyl)piperazine-1-yl)-6-nitro-3-oxoquinoxaline-2-carboxylic Acid]	204 to 206 °C
O=C(NCc1cn(-c2cc3nc(C(=O)O)c(=O)[nH]c3cc2[N+](=O)[O-])cn1)Nc1ccc(C(=O)O)cc1 (as salt: salt) [Example 119, 7-(4-(((4-Carboxyphenyl)aminocarbonylamino)methyl)imidazolyl)-3,4-dihydro-6-nitro-3-oxoquinoxaline-2-carboxylic Acid]	300 °C (dec.)
CN(C)Cc1cc2nc(C(=O)O)c(=O)[nH]c2cc1[N+](=O)[O-] [Example 67, 3,4-Dihydro-7-dimethylaminomethyl-6-nitro-3-oxoquinoxaline-2-carboxylic Acid]	> 300 °C
O=C(O)c1nc2cc(N3CCN(c4ccc(F)cc4)CC3)c([N+](=O)[O-])cc2[nH]c1=O [Example 54, 3,4-Dihydro-7-(4-(4-fluorophenyl)piperazine-1-yl)-6-nitro-3-oxoquinoxaline-2-carboxylic Acid]	235.5 to 237.5 °C
O=C(Nc1ccccc1)Nc1cn(-c2cc3nc(C(=O)O)c(=O)[nH]c3cc2[N+](=O)[O-])ccc1=O [Example 129, 3,4-Dihydro-6-nitro-3-oxo-7-(3-(phenylaminocarbonylamino)-4-pyridone-1-yl)quinoxaline-2-carboxylic Acid]	282 to 284 °C (dec.)
Nc1cc2[nH]c(=O)c(C(=O)O)nc2cc1F [Example 72, 6-Amino-3,4-dihydro-7-fluoro-3-oxoquinoxaline-2-carboxylic Acid]	> 300 °C
O=C(Cc1ccc(Br)cc1)Nc1cn(-c2cc3nc(C(=O)O)c(=O)[nH]c3cc2[N+](=O)[O-])ccc1=O [Example 136, 7-(3-((4-Bromobenzyl)carbonylamino)-4-pyridone-1-yl)-3,4-dihydro-6-nitro-3-oxoquinoxaline-2-carboxylic Acid]	240 to 242 °C (dec.)
